From ChEMBL document CHEMBL5291721, “A preclinical secondary pharmacology resource illuminates target-adverse drug reaction associations of marketed drugs” (Nat Commun, 2023)

What was measured:
[1] = biological target: 5-hydroxytryptamine receptor 2B (Homo sapiens, UniProt P41595); type: functional, cell-based
[2] = biological target: Motilin receptor (Homo sapiens, UniProt O43193)
[3] = biological target: Sodium-dependent noradrenaline transporter (Homo sapiens, UniProt P23975)
[4] = biological target: T1, Progesterone receptor (Homo sapiens, UniProt P06401); type: functional
T1 sequence (P06401 whole entry): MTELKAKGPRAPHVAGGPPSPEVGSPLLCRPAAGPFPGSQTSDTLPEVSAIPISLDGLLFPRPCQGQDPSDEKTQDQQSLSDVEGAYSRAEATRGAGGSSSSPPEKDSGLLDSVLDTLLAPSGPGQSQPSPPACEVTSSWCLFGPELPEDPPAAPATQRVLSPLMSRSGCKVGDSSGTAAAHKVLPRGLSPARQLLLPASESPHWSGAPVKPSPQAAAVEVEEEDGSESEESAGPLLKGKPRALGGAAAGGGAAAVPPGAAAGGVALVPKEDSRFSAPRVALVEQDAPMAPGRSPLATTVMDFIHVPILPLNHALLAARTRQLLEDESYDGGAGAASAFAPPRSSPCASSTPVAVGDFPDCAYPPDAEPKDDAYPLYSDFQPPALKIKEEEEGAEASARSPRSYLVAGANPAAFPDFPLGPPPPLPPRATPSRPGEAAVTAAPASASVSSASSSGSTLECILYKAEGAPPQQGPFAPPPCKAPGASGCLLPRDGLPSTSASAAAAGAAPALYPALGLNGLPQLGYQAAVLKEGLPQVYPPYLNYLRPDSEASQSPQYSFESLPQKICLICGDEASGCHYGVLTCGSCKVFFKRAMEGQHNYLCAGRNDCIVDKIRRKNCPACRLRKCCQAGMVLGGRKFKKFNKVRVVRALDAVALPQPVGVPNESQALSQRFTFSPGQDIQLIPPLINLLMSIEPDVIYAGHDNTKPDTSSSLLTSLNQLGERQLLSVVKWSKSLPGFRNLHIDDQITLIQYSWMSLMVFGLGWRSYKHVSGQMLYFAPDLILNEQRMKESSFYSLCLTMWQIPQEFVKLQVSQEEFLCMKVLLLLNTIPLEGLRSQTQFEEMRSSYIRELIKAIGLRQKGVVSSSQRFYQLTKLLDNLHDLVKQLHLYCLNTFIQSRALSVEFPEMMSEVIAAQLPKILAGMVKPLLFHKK

[5] = biological target: Histamine H1 receptor (Homo sapiens, UniProt P35367)
Chain of Histamine H1 receptor (P35367 whole entry): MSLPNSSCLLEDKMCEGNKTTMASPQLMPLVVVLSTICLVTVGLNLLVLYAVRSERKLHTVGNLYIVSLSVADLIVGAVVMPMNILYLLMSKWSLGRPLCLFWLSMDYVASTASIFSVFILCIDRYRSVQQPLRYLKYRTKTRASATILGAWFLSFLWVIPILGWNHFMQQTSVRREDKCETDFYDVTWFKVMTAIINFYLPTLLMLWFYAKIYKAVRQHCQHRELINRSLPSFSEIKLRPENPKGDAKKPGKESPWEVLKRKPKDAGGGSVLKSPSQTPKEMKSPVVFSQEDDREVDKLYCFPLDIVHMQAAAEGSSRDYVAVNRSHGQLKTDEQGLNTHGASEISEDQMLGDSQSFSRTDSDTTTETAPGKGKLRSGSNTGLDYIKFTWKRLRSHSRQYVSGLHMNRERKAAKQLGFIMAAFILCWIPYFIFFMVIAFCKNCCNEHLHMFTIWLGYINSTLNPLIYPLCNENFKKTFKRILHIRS

[6] = biological target: Cannabinoid receptor 1 (Homo sapiens, UniProt P21554); type: functional, cell-based
Chain of Cannabinoid receptor 1 (P21554 whole entry): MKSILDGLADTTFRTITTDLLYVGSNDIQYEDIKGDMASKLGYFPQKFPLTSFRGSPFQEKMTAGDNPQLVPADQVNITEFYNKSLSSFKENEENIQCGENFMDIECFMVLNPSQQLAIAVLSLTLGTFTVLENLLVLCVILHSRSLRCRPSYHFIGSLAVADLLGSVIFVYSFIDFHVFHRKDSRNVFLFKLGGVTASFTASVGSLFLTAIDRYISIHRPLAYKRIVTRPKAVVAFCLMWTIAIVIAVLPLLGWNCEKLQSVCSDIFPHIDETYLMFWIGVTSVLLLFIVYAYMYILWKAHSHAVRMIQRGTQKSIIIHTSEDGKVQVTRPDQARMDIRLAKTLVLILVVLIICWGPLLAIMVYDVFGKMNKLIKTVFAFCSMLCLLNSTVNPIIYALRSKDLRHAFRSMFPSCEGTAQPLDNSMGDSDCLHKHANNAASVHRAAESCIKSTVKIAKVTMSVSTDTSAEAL

[7] = biological target: T2, Type-1 angiotensin II receptor (Homo sapiens, UniProt P30556)
T2 sequence (P30556 whole entry): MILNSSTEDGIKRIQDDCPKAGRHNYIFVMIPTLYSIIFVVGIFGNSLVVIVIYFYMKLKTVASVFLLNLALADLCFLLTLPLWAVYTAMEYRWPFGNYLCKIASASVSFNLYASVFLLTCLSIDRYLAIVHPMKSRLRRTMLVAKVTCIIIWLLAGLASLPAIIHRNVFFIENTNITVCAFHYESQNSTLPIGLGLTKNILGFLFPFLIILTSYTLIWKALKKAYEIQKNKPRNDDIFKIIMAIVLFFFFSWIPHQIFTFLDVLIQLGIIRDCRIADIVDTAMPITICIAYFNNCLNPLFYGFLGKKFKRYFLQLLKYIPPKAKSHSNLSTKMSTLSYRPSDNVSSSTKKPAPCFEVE

[8] = biological target: T3, Alpha-1A adrenergic receptor (Homo sapiens, UniProt P35348); type: functional, cell-based
T3 sequence (P35348 whole entry): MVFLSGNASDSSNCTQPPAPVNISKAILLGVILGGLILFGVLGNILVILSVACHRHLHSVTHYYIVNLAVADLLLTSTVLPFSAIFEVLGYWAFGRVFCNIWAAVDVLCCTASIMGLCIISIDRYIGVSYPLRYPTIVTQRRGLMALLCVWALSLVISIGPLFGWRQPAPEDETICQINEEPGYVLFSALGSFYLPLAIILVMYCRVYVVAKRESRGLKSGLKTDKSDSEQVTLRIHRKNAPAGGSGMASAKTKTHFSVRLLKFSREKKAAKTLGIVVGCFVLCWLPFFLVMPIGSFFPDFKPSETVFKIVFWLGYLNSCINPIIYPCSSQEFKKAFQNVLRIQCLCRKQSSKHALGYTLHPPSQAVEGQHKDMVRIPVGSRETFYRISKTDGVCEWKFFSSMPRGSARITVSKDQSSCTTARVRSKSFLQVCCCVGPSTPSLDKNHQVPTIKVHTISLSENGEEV

[9] = biological target: T4, Estrogen receptor (Homo sapiens, UniProt P03372)
T4 sequence (P03372 whole entry): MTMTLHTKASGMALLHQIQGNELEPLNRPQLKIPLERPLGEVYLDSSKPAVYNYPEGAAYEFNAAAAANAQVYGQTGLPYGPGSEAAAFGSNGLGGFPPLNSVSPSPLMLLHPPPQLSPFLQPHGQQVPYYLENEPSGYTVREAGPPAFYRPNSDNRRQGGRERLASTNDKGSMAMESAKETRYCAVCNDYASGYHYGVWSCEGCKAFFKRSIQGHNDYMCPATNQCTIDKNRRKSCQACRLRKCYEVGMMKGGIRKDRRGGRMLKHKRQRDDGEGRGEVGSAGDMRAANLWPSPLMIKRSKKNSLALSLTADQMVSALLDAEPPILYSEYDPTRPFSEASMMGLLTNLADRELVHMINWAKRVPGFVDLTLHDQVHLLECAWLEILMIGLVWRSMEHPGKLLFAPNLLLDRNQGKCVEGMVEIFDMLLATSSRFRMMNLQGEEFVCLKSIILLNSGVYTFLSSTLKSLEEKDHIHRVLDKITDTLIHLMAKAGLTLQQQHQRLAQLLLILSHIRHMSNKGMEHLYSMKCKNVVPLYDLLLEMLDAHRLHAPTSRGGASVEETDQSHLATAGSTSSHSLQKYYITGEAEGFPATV
Further: assay procedure not described here.

Chain of Motilin receptor (O43193 whole entry): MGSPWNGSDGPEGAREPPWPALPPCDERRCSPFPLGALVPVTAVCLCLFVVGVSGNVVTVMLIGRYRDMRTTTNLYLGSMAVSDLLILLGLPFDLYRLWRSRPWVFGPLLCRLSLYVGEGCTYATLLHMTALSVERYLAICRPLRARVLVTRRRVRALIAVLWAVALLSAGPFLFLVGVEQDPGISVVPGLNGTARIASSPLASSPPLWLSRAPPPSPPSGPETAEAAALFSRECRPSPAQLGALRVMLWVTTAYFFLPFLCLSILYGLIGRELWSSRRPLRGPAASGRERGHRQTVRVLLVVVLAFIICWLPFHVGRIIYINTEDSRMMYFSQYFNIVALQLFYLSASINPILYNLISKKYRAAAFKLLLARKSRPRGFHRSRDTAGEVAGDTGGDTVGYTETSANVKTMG
Chain of 5-hydroxytryptamine receptor 2B (P41595 whole entry): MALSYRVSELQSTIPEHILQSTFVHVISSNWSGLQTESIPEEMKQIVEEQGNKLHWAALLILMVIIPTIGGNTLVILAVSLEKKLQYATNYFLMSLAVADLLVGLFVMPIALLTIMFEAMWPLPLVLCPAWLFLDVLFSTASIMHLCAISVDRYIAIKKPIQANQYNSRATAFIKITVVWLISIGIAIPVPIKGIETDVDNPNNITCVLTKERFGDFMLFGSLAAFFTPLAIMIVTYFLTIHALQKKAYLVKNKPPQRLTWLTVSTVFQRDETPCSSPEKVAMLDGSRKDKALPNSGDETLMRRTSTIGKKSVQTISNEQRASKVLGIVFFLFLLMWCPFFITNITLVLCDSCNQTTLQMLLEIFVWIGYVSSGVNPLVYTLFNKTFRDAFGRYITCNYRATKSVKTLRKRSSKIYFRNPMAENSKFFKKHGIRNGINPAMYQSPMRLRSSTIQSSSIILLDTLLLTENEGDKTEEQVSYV
Chain of Sodium-dependent noradrenaline transporter (P23975 whole entry): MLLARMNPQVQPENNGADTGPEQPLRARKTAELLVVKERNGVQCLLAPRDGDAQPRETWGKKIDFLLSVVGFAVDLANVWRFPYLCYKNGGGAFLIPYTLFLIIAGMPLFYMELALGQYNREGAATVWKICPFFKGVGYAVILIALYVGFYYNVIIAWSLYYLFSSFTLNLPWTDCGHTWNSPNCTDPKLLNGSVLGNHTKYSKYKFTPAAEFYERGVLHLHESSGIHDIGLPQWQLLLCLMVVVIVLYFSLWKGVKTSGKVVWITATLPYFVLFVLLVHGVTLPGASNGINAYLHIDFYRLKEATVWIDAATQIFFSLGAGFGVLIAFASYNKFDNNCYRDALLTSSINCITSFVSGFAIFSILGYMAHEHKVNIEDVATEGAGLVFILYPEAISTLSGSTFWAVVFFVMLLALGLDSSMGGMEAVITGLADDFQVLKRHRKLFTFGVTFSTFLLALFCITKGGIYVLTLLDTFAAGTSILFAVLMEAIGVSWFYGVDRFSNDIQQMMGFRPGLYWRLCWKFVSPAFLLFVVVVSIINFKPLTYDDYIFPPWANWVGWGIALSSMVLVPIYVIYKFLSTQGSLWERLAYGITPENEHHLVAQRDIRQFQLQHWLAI

SMILES	AC50 [1]	AC50 [2]	AC50 [3]	AC50 [4]	AC50 [5]	AC50 [6]	AC50 [7]	AC50 [8]	AC50 [9]
C=C1CC[C@@]2(O)[C@H]3Cc4ccc(O)c5c4[C@@]2(CCN3CC2CC2)[C@H]1O5	> 30 µM	> 30 µM	> 30 µM	> 30 µM	> 30 µM	> 30 µM	> 30 µM		
COc1ccc2c(c1)c(CC(=O)OCC(=O)O)c(C)n2C(=O)c1ccc(Cl)cc1 [ACEMETACIN]	> 30 µM	> 30 µM	> 30 µM	> 30 µM		> 30 µM	> 30 µM	> 30 µM	
CN1C(=O)COc2c(C(=O)NC3CN4CCC3CC4)cc(Cl)cc21 (stereo not given) [AZASETRON]	> 30 µM	> 30 µM	> 30 µM	> 30 µM		> 30 µM	> 30 µM	> 30 µM	> 30 µM
Cc1cc2c(OCC(CNC(C)(C)C)OC(=O)c3ccccc3)cccc2[nH]1 (stereo not given) [BOPINDOLOL]	> 30 µM	23 µM	10.3 µM	> 30 µM		> 30 µM	> 30 µM	> 30 µM	> 30 µM
CCCCN1CCCCC1C(=O)Nc1c(C)cccc1C (stereo not given) [BUPIVACAINE]	> 30 µM	> 30 µM		> 30 µM		> 30 µM	> 30 µM		
CC(C)(Oc1ccc(C2CC2(Cl)Cl)cc1)C(=O)O (stereo not given) [CIPROFIBRATE]	> 30 µM	> 30 µM	> 30 µM	> 30 µM		> 30 µM	> 30 µM	> 30 µM	> 30 µM
Cc1c(O)c(=O)ccn1C [DEFERIPRONE]	> 30 µM	> 30 µM	> 30 µM	> 30 µM		> 30 µM	> 30 µM	> 30 µM	> 30 µM
CC(=O)O[C@@]12CO[C@@H]1C[C@H](O)[C@@]1(C)C(=O)[C@H](O)C3=C(C)[C@@H](OC(=O)[C@H](O)[C@@H](NC(=O)OC(C)(C)C)c4ccccc4)C[C@@](O)([C@@H](OC(=O)c4ccccc4)[C@H]21)C3(C)C [DOCETAXEL ANHYDROUS]	> 30 µM	> 30 µM	> 30 µM	> 30 µM			> 30 µM		> 30 µM
COc1c(N2CCNC(C)C2)c(F)cc2c(=O)c(C(=O)O)cn(C3CC3)c12 (stereo not given) [GATIFLOXACIN]	> 10 µM	> 10 µM	> 10 µM	> 10 µM			> 10 µM		
COC(=O)C1=C(C)NC(C)=C(C(=O)OC(C)C)C1c1cccc2nonc12 (stereo not given) [ISRADIPINE]	> 10 µM	14.7 µM	> 30 µM	> 30 µM	> 30 µM		> 10 µM	> 30 µM	
Cc1cccc(C)c1NC(=O)C1CCCCN1C (stereo not given) [MEPIVACAINE]	> 30 µM	> 30 µM	> 30 µM	> 30 µM		> 30 µM	> 30 µM	> 30 µM	> 30 µM
COc1ccccc1OCC(O)COC(N)=O (stereo not given) [METHOCARBAMOL]	> 10 µM	> 10 µM	> 10 µM	> 30 µM			> 30 µM		> 30 µM
C[C@H]1C[C@@H]2[C@H]([C@@H](O)C[C@@]3(C)[C@H]2CC[C@]3(O)C(=O)COC(=O)CCC(=O)O)[C@@]2(C)C=CC(=O)C=C12 [METHYLPREDNISOLONE HEMISUCCINATE]	> 30 µM	> 30 µM	> 30 µM	> 30 µM	> 30 µM	> 30 µM	> 30 µM		
CCCCC(C)(O)C/C=C/[C@H]1[C@H](O)CC(=O)[C@@H]1CCCCCCC(=O)OC (stereo not given in full) [MISOPROSTOL]	> 30 µM	> 30 µM	> 30 µM	27 µM	> 30 µM	> 30 µM	> 30 µM		
COc1c(C)c2c(c(O)c1C/C=C(\C)CCC(=O)OCCN1CCOCC1)C(=O)OC2 [MYCOPHENOLATE MOFETIL]	> 30 µM	> 30 µM	> 30 µM	> 30 µM		> 30 µM	> 30 µM	> 30 µM	> 30 µM
CN1C(=O)CC(c2ccccc2)C1=O (stereo not given) [PHENSUXIMIDE]	> 10 µM	> 10 µM	> 10 µM	> 10 µM	> 10 µM	> 30 µM	> 10 µM		
CCCOc1ccc(C(=O)OCCN(CC)CC)cc1N [PROPARACAINE]	> 30 µM	> 30 µM	> 30 µM	> 30 µM		> 30 µM	> 30 µM	> 30 µM	
Nc1nc2ccc(OC(F)(F)F)cc2s1 [RILUZOLE]	> 30 µM	> 30 µM	19 µM	> 30 µM		> 30 µM	> 30 µM	> 30 µM	> 30 µM
C#CCN(C)[C@H](C)Cc1ccccc1 [SELEGILINE]	> 10 µM	> 10 µM	> 10 µM	> 10 µM		> 30 µM	> 10 µM	> 30 µM	> 10 µM
O=C1NCCN1CCN1CCC(c2cn(-c3ccc(F)cc3)c3ccc(Cl)cc23)CC1 [SERTINDOLE]	> 30 µM	4.3 µM	2.7 µM	> 30 µM		20 µM	> 30 µM	0.64 µM	
CN[C@@H]1[C@H](O)[C@H](NC)[C@H]2O[C@@]3(O)C(=O)C[C@@H](C)O[C@H]3O[C@@H]2[C@H]1O [SPECTINOMYCIN]	> 30 µM	> 10 µM	> 10 µM	> 10 µM			> 10 µM		> 10 µM
CC[C@]1(O)C[C@@H]2CN(CCc3c([nH]c4ccccc34)[C@@](C(=O)OC)(c3cc4c(cc3OC)N(C)[C@H]3[C@@](O)(C(N)=O)[C@H](O)[C@]5(CC)C=CCN6CC[C@]43[C@@H]65)C2)C1 [VINDESINE]	> 30 µM	4.8 µM	> 30 µM	> 30 µM			> 30 µM	> 30 µM	> 30 µM
